Source: patent US10046038B2, “Leptospira with increased antigenic mass” (priority 2012, dated 2018)
Where two headings read alike, the source gives them in different places.

How the values were obtained:
[1] = tested on: Leptospira serogroup Icterohaemorrhagiae; assay: Antigenic mass of fermenter culture by antigen Elisa; format: cell-based, L. interrogans (sensu lato); conditions: for Ag U/10^9 cells/ml, at 3 days: BSA ingredient in EMJH medium, not supplemented
Protocol: A working seed of a strain of L. interrogans was inoculated into EMJH medium and incubated at 29° C. for 3 to 5 days. If needed up to 5 consecutive pre-culture passages could be made, whereby the pre-cultures were visually inspected for sufficient proliferation (turbidity) as criterion for transfer to the next passage.
(§1) All experiments were performed in 0.5, 2 or 20 L working volume, computer-controlled fermenters (Sartorius), which were filled with 0.5, 1 or 10 L sterile-filtered EMJH medium, respectively. The standard EMJH medium contained 1% w/v BSA and 0.125% w/v polysorbate 80. The pH of the medium was 7.4 ±0.1 at start. The fermenter was inoculated with 5% v/v serogroup lcterohaemorrhagiae pre-culture (passage 5), giving an inoculation density of 2-4×10^7 cells/ml at day 0.
(§2) During all fermentation experiments the temperature was controlled at about 29° C. The medium was aerated with headspace airflow, and the dissolved oxygen (pO2) concentration was controlled by automatic variation of the agitation-rate, to maintain a set pO2 concentration. Temperature, pH and pO2 concentration were monitored online, but pH and foam formation were not controlled.
In comparative experiments up to 4 fermenters were run in parallel, which started off simultaneously with the same medium and Leptospira inoculum. One fermenter then usually contained only standard EMJH medium and served as reference, while in the others different supplementations of polyunsaturated C18 fatty acid were made.
(§3) Supplementation was done either with pure linoleic acid (Sigma Aldrich, >99% pure) as a 10% v/v stock in absolute ethanol (JT Baker). Alternatively, linoleic acid was supplemented by using a BSA that was created with a high level of linoleic acid (high LA BSA). This high LA BSA was used either to replace a standard BSA in EMJH medium, or was used in addition to BSA in the EMJH medium, in which case it was added as a 25% w/v stock solution in sterile water. The high LA BSA or the pure linoleic acid/ethanol supplements were fed to a fermenter over the course of 4 hours, at 0.1-0.2 ml/hour, until the fermenter culture had received a desired total amount of linoleic acid. Different total available levels of linoleic acid have been tested, of between about 5 and 425 μg/ml in the total volume. The fermenter cultures of Leptospira were supplemented at different cell-densities i.e. at early-, mid- or end phase culture.
(§4) Daily 5 ml samples were taken aseptically, directly from the fermenter, for analyses of total cell count (by Petroff-Hausser counting chamber); antigenic mass (by antigen amount Elisa); inactivated cells; and for profiling of the fatty acid type and-relative amounts (by gas chromatography) in the culture medium.
(§5) Samples were inactivated with 0.1 or 0.2% v/v BPL, at 29° C. for 16-24 hours. The inactivated Leptospira were tested in an antigen Elisa within 24 hours.
(§6) For a reference see: R. A. Hartskeerl et al., (International course on laboratory methods for the diagnosis of Leptospirosis, 4th Edition, 1 Apr. 2004. Royal Tropical Institute, Amsterdam).
(§7) The Elisa's were set up as capture assays, whereby the same moab was used for coating and for detection.
A reference standard was prepared for each Leptospira strain that was tested by antigen Elisa. The standard is a batch of monovalent Leptospira antigen, from inactivated cells. This was prepared using common techniques, essentially by proliferating a specific strain of Leptospira in EMJH medium as described above, and was inactivated as described before.

[2] = tested on: Leptospira serogroup Grippotyphosa; format: cell-based, L. interrogans (sensu lato)
[3] = tested on: Leptospira serogroup Australis (serovar Bratislava); format: cell-based, L. interrogans (sensu lato)
[4] = tested on: Leptospira serogroup Tarassovi; format: cell-based, L. interrogans (sensu lato)
Protocol: as §1, §3, §4, §5, §6, §7
(§8) A reference standard was prepared for each Leptospira strain that was tested by antigen Elisa. The standard is a batch of monovalent Leptospira antigen, from inactivated cells. This was prepared using common techniques, essentially by proliferating a specific strain of Leptospira in EMJH medium as described above, and was inactivated as described before. Next the standard was concentrated and/or diluted in phosphate buffered saline, to contain about 1×10^9 cells/ml. An arbitrary number of antigen units was affixed to the sample, for example: 1000 Units/ml. When the standard needed replenishing, a subsequent preparation of the same standard, was compared and titrated alongside the old standard several times, before replacing it.
(§9) As before, the average antigenic mass score by Elisa was calculated per 1×10^9 cells (pre-inactivation). […] The average antigenic mass 1×10^9 cells of the reference culture was set at 0% increase.
Both alpha-and gamma C18:3 were purchased as pure chemicals (>98%).

[5] = tested on: Leptospira serogroup Canicola (strain WS 280503)
Protocol: as §1, §4, §5, §6, §7, §8, §9
(§10) Both alpha-and gamma C18:3 were purchased as pure chemicals (>98%). Shortly before use for supplementation, they were diluted in pure ethanol to 10% or 20% v/v, depending on the amount of C18:3 that was to be added to a culture. This dilution in ethanol was added to a Leptospira culture by addition in 5 doses, divided over a period of 4 hours.

[6] = tested on: Leptospira serogroup Pomona
Protocol: as §1, §4, §5, §6, §7, §8, §9, §10

[7] = tested on: Leptospira serogroup Icterohaemorrhagiae; assay: Biomass (total cell count) and toxicity in fermenter culture; format: cell-based, L. interrogans (sensu lato)
Protocol: as §2

[8] = tested on: Leptospira serogroup Sejroe (serovar Hardjo); assay: Antigenic mass of fermenter culture by antigen Elisa; format: cell-based, L. interrogans (sensu lato); conditions: high LA BSA in EMJH
Protocol: as §3, with “culture. Typical mid-phase cell density was at about 5×10^8 cells/ml, which was reached during day 2 of the main incubation. Upon supplementation with linoleic acid from the pure linoleic acid in ethanol stock, sometimes a small decrease in pH was noted, which was corrected by applying some NaOH.” for “culture.”
In a next study it was confirmed that the increase in antigenic mass upon supplementation with linoleic acid (C18:2) is a general phenomenon in Leptospira. […]

[9] = 100 μg/ml, alpha vs gamma side by side, FIGS. 19 and 20
[10] = supplementation at 5×10^8 cells/ml, FIGS. 33-36
[11] = supplementation at 8×10^8 cells/ml, FIGS. 33-36
[12] = BSA used in EMJH medium, compared with standard BSA

BSA, BovoStar ®: a standard all-purpose BSA from the same manufacturer (Bovogen)
Ag U/10^9 cells/ml, at 3 days [1]: 533 Ag U/10^9 cells/ml

CCCCCC=CCC=CCC=CCCCCC(=O)O [gamma C18:3, 6,9, 12-octadecatrienoic acid]
increase in relative antigenic mass [1, 9]: 170%
increase in antigenic mass ([1]; 200 μg/ml, FIGS. 17 and 18): 114%
increase in antigenic mass ([1]; 300 μg/ml, FIGS. 17 and 18): 153%
Relative increase in antigenic mass ([1]; supplementation at 2×10^8 cells/ml, FIGS. 35-36): 71%
Relative increase in antigenic mass [1, 10]: 81%
Relative increase in antigenic mass [1, 11]: 162%
Relative increase in antigenic mass (%) ([2]; 100 μg/ml gamma C18:3): 57%
Relative increase in antigenic mass (%) ([3]; 100 μg/ml gamma C18:3): 15%
Relative increase in antigenic mass (%) ([4]; 100 μg/ml gamma C18:3): 51%
Relative increase in antigenic mass (%) ([5]; 200 μg/ml): 98%
Relative increase in antigenic mass (%) ([5]; 300 μg/ml): 83%
Relative increase in antigenic mass (%) ([6]; 100 μg/ml gamma C18:3): 73%
toxicity on the culture ([7]; 400 μg/ml, FIGS. 17 and 18): showed toxicity

high LA BSA: a BSA that was created with a high level of linoleic acid
antigenic mass ([1]; high LA BSA at 1% w/v in EMJH, 25 μg/ml linoleic acid available, average of days 3-5): 1636 Ag U/1×10^9 cells
Ag. mass, Ag U/10^9 cells/ml ([1]; supplem. high LA BSA giving 50 μg/ml C18:2, total 55 μg/ml, EMJH standard BSA, average of days 3-5): 1612 Ag U/10^9 cells/ml
relative Ag. mass (%) ([1]; supplem. high LA BSA giving 50 μg/ml C18:2, total 55 μg/ml, non-supplemented = 100, average of days 3-5): 221%
relative Ag. mass (%) ([8]; C18:2 total 25 μg/ml (reference = 100), 2 day average): 100%
Antigenic mass, Ag U/10^9 cells/ml ([8]; C18:2 total 25 μg/ml, 2 day average (days 5 and 6)): 287 Ag U/10^9 cells/ml
relative Ag. mass (%) ([2]; high LA BSA in EMJH, C18:2 total 25 μg/ml (reference = 100), 2 day average): 100%
Antigenic mass, Ag U/10^9 cells/ml ([2]; high LA BSA in EMJH, C18:2 total 25 μg/ml, 2 day average (days 4 and 5)): 5074 Ag U/10^9 cells/ml

BSA, Millipore: standard commercial BSA (Millipore)
Ag U/10^9 cells/ml, at 3 days [1]: 525 Ag U/10^9 cells/ml

CCC=CCC=CCC=CCCCCCCCC(=O)O [alpha C18:3, 9, 12, 15-octadecatrienoic acid]
increase in relative antigenic mass ([1]; 100 μg/ml single fatty acid, FIGS. 37 and 38): 144%
increase in relative antigenic mass [1, 9]: 122%
increase in antigenic mass ([1]; 100 μg/ml, FIGS. 15 and 16, vs unsupplemented reference): 122%
increase in antigenic mass ([1]; 200 μg/ml, FIGS. 15 and 16, vs unsupplemented reference): 81%
Relative increase in antigenic mass ([1]; supplementation at 1×10^8 cells/ml, FIGS. 33-34): 163%
Relative increase in antigenic mass [1, 10]: 164%
Relative increase in antigenic mass [1, 11]: 140%
Relative increase in antigenic mass (%) ([2]; 100 μg/ml alpha C18:3): 60%
Relative increase in antigenic mass (%) ([2]; 200 μg/ml alpha C18:3): 63%
Relative increase in antigenic mass (%) ([3]; 100 μg/ml alpha C18:3): 40%
Relative increase in antigenic mass (%) ([3]; 200 μg/ml alpha C18:3): 62%
Relative increase in antigenic mass (%) ([4]; 100 μg/ml alpha C18:3): 59%
Relative increase in antigenic mass (%) ([4]; 200 μg/ml alpha C18:3): 141%
Relative increase in antigenic mass (%) ([5]; 200 μg/ml): 107%
Relative increase in antigenic mass (%) ([5]; 300 μg/ml): 112%
Relative increase in antigenic mass (%) ([5]; 400 μg/ml): 118%
Relative increase in antigenic mass (%) ([6]; 100 μg/ml alpha C18:3): 0%
Relative increase in antigenic mass (%) ([6]; 200 μg/ml alpha C18:3): 0%
toxicity on the culture ([7]; 300 or 400 μg/ml, FIGS. 15 and 16): toxic effects

BSA, BovoLep ®: standard BSA enriched with a number of vegetable fatty acids, recommended for promoting growth of Leptospira (Bovogen, Australia)
Ag U/10^9 cells/ml, at 3 days [1]: 498 Ag U/10^9 cells/ml
effect on antigenic mass [1, 12]: no significant effect
effect on biomass [7, 12]: did increase the biomass
